In the supplement of paper PMC10307832:

Assays:
Experiment in all cases: relative viability (nuclei count vs DMSO), 5 days (fraction); higher = more cells survive
CAL-12T = test system: CAL-12T
Procedure, shortened: (§1)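 Medians of duplicate plates are given as relative viability. That measure is the nuclei count in treated wells divided by the count in vehicle wells. Counts were taken on 4× images of lung cancer cell lines in 1536-well plates, 5 days after pin-tool dosing the day after seeding with one drug alone or a fixed anchor-drug dose plus five library-drug doses (not always all listed) in √10 steps.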

COR-L 105 = test system: COR-L 105
Procedure, shortened: as §1

NCI-H2126 = test system: NCI-H2126
Procedure, shortened: as §1

HOP-62 = test system: HOP-62
Procedure, shortened: as §1

NCI-H322M = test system: NCI-H322M
Procedure, shortened: as §1

LXF-289 = test system: LXF-289
Procedure, shortened: as §1

HCC-15 = test system: HCC-15
Procedure, shortened: as §1

NCI-H1666 = test system: NCI-H1666
Procedure, shortened: as §1

HCC-78 = test system: HCC-78
Procedure, shortened: as §1

ChaGo-K-1 = test system: ChaGo-K-1
Procedure, shortened: as §1

NCI-H1975 = test system: NCI-H1975
Procedure, shortened: as §1

NCI-H441 = test system: NCI-H441
Procedure, shortened: as §1

NCI-H1755 = test system: NCI-H1755
Procedure, shortened: as §1

NCI-H2085 = test system: NCI-H2085
Procedure, shortened: as §1

NCI-H2023 = test system: NCI-H2023
Procedure, shortened: as §1

NCI-H358 = test system: NCI-H358
Procedure, shortened: as §1

ABC-1 = test system: ABC-1
Procedure, shortened: as §1

UMC-11 = test system: UMC-11
Procedure, shortened: as §1

EMC-BAC-2 = test system: EMC-BAC-2
Procedure, shortened: as §1

NCI-H3122 = test system: NCI-H3122
Procedure, shortened: as §1

EPLC-272H = test system: EPLC-272H
Procedure, shortened: as §1

NCI-H1915 = test system: NCI-H1915
Procedure, shortened: as §1

COc1nc(C)cnc1NS(=O)(=O)c1cccnc1-c1ccc(-c2nnco2)cc1 [Zibotentan] + N=C(N)NC(=N)NCCc1ccccc1 [Phenformin] (partner 250 µM)
relative viability (CAL-12T; first compound 0.08 µM): 0.602 | relative viability (CAL-12T; first compound 0.253 µM): 0.482 | relative viability (CAL-12T; first compound 0.8 µM): 0.554 | relative viability (CAL-12T; first compound 2.53 µM): 0.609 | relative viability (COR-L 105; first compound 0.08 µM): 0.382 | relative viability (COR-L 105; first compound 0.253 µM): 0.423 | relative viability (COR-L 105; first compound 0.8 µM): 0.406 | relative viability (COR-L 105; first compound 2.53 µM): 0.554 | relative viability (NCI-H2126; first compound 0.08 µM): 0.534 | relative viability (NCI-H2126; first compound 0.8 µM): 0.518 | relative viability (NCI-H2126; first compound 2.53 µM): 0.575 | relative viability (HOP-62; first compound 0.08 µM): 0.746 | relative viability (HOP-62; first compound 0.253 µM): 0.664 | relative viability (HOP-62; first compound 0.8 µM): 0.747 | relative viability (HOP-62; first compound 2.53 µM): 0.715 | relative viability (NCI-H322M; first compound 0.08 µM): 0.824 | relative viability (NCI-H322M; first compound 0.253 µM): 0.589 | relative viability (NCI-H322M; first compound 0.8 µM): 0.831 | relative viability (NCI-H322M; first compound 2.53 µM): 0.816 | relative viability (LXF-289; first compound 0.08 µM): 0.533 | relative viability (LXF-289; first compound 0.253 µM): 0.489 | relative viability (LXF-289; first compound 0.8 µM): 0.571 | relative viability (LXF-289; first compound 2.53 µM): 0.543 | relative viability (HCC-15; first compound 0.08 µM): 0.524 | relative viability (HCC-15; first compound 0.8 µM): 0.493 | relative viability (HCC-15; first compound 2.53 µM): 0.451 | relative viability (NCI-H1666; first compound 0.08 µM): 0.515 | relative viability (NCI-H1666; first compound 0.253 µM): 0.54 | relative viability (NCI-H1666; first compound 0.8 µM): 0.596 | relative viability (NCI-H1666; first compound 2.53 µM): 0.559 | relative viability (HCC-78; first compound 0.08 µM): 0.778 | relative viability (HCC-78; first compound 0.253 µM): 0.598 | relative viability (HCC-78; first compound 0.8 µM): 0.581 | relative viability (HCC-78; first compound 2.53 µM): 0.59 | relative viability (ChaGo-K-1; first compound 0.08 µM): 0.563 | relative viability (ChaGo-K-1; first compound 0.253 µM): 0.42 | relative viability (ChaGo-K-1; first compound 0.8 µM): 0.469 | relative viability (ChaGo-K-1; first compound 2.53 µM): 0.543 | relative viability (NCI-H1975; first compound 0.08 µM): 0.428 | relative viability (NCI-H1975; first compound 0.253 µM): 0.398 | relative viability (NCI-H1975; first compound 0.8 µM): 0.419 | relative viability (NCI-H1975; first compound 2.53 µM): 0.413 | relative viability (NCI-H441; first compound 0.08 µM): 1.07 | relative viability (NCI-H441; first compound 0.253 µM): 0.665 | relative viability (NCI-H441; first compound 0.8 µM): 0.926 | relative viability (NCI-H441; first compound 2.53 µM): 0.895 | relative viability (NCI-H1755; first compound 0.08 µM): 0.658 | relative viability (NCI-H1755; first compound 0.253 µM): 0.636 | relative viability (NCI-H1755; first compound 0.8 µM): 0.599 | relative viability (NCI-H1755; first compound 2.53 µM): 0.703 | relative viability (NCI-H2085; first compound 0.08 µM): 0.73 | relative viability (NCI-H2085; first compound 0.253 µM): 0.699 | relative viability (NCI-H2085; first compound 0.8 µM): 0.803 | relative viability (NCI-H2085; first compound 2.53 µM): 0.814 | relative viability (NCI-H2023; first compound 0.08 µM): 0.407 | relative viability (NCI-H2023; first compound 0.253 µM): 0.321 | relative viability (NCI-H2023; first compound 0.8 µM): 0.416 | relative viability (NCI-H2023; first compound 2.53 µM): 0.451 | relative viability (NCI-H358; first compound 0.08 µM): 0.288 | relative viability (NCI-H358; first compound 0.253 µM): 0.134 | relative viability (NCI-H358; first compound 0.8 µM): 0.328 | relative viability (NCI-H358; first compound 2.53 µM): 0.345 | relative viability (ABC-1; first compound 0.08 µM): 0.236 | relative viability (ABC-1; first compound 0.253 µM): 0.235 | relative viability (ABC-1; first compound 0.8 µM): 0.252 | relative viability (ABC-1; first compound 2.53 µM): 0.227 | relative viability (UMC-11; first compound 0.08 µM): 0.318 | relative viability (UMC-11; first compound 0.253 µM): 0.291 | relative viability (UMC-11; first compound 0.8 µM): 0.312 | relative viability (UMC-11; first compound 2.53 µM): 0.346 | relative viability (EMC-BAC-2; first compound 0.08 µM): 0.541 | relative viability (EMC-BAC-2; first compound 0.8 µM): 0.61 | relative viability (EMC-BAC-2; first compound 2.53 µM): 0.538 | relative viability (NCI-H3122; first compound 0.08 µM): 0.378 | relative viability (NCI-H3122; first compound 0.8 µM): 0.408 | relative viability (NCI-H3122; first compound 2.53 µM): 0.373 | relative viability (EPLC-272H; first compound 0.08 µM): 0.287 | relative viability (EPLC-272H; first compound 0.253 µM): 0.296 | relative viability (EPLC-272H; first compound 0.8 µM): 0.306 | relative viability (EPLC-272H; first compound 2.53 µM): 0.306 | relative viability (NCI-H1915; first compound 0.08 µM): 0.399 | relative viability (NCI-H1915; first compound 0.253 µM): 0.358 | relative viability (NCI-H1915; first compound 0.8 µM): 0.377 | relative viability (NCI-H1915; first compound 2.53 µM): 0.289
